Data on one compound can be found in US20150080461A1, “Composition Having Antiviral Activity against Flavivirus” (University Malaya, priority 2012, published 2015).

Data set [1] is described as follows: MTT cytotoxicity assay on Vero cells. The note with it: African green monkey, read-out: CC50, cytotoxicity effect against Vero cells. Type of data set: cell-based. The procedure:
C6/36 mosquito cell line derived from Aedes albopictus and Vero cell line were used. Both cell lines were maintained and propagated in Eagle's Minimum Essential Medium (EMEM) containing 10% fetal bovine serum. Cultured C6/36 and Vero cells were incubated at 28° C. and 37° C., respectively in 5% CO2 humidified chamber. At the time of virus propagation, serum concentration was reduced to 2%. Dengue virus type-2 (DENV-2) New Guinea C strain (NGC) was propagated using C6/36 cell line and harvested after CPE presentation on day seven post infection. After titration, viral stock was stored at -70° C. MTT (Dimethyl thiazolyl diphenyl tetrazolium salt) assay was performed to determine cytotoxicity of quercetin on Vero cells.

For data set [2], the system named is DENV-2 (NGC strain). The experiment in a line: Anti-adsorption activity against DENV-2 (FFURA, qRT-PCR). Conditions: added to cells simultaneously during infection, FFURA and qRT-PCR. Type of data set: cell-based, Dengue virus type-2. The procedure: In another experiment, Vero cells at ˜80% confluency were infected with 200 FFU of DENV-2 in the presence or absence of different concentrations of quercetin. The microplate was kept at 37° C. for one hour for virus adsorption. Then the cells were washed twice using sterile PBS and incubated for two hours at 37° C. Cells were then incubated for 4 days and foci formed was counted and DENV RNA copy number to indicate inhibition of virus adsorption was quantified using quantitative RT-PCR.
In general, antiviral activity of quercein was evaluated by measuring the reduction in number of viral foci. Confluent Vero cell monolayers prepared in 24 wells cell culture microplates were used. […] The number of DENV-2 foci formed was counted under a stereomicroscope and the virus titer was expressed as Foci-Forming-Unit (FFU). The percentage of viral foci reduction (RF %) compared to untreated controls was calculated as follows: […]
(§1) Reduction in the number of viral foci was further verified using quantitative real time polymerase chain reaction (qRT-PCR) amplification.
(§2) Quantitative RT-PCR was performed to determine the effect of the compound on DENV replication by quantifying DENV-2 genomic RNA copy number. […] For absolute quantitation of the viral RNA, a standard curve was established with a serially diluted RNA extracted from DENV-2 stock with a known titer.

Data set [3] concerns DENV-2 (NGC strain). Kind of data set: Continuous treatment antiviral activity against DENV-2 (FFURA, qRT-PCR). Type of data set: cell-based, Dengue virus type-2. The procedure:
In separate experiment, to determine the antiviral activities of quercetin when used continuously, different concentrations of quercetin were added to the Vero cell monolayer five hours before virus infection. After five hours of pre-infection treatment, the cells were washed twice with sterile PBS and then 200 FFU of DENV-2 was inoculated to the cells and incubated at 37° C. for one hour. Infected cells were continuously incubated with the respective concentration of quercetin for four days post infection. Viral foci formed were counted and DENV RNA copy number to indicate inhibition of virus replication was quantified using quantitative RT-PCR.
(§3) In general, antiviral activity of quercein was evaluated by measuring the reduction in number of viral foci. Confluent Vero cell monolayers prepared in 24 wells cell culture microplates were used. Then the infected cells treated using the different treatment regime was overlaid with 1.5% of carboxy methyl cellulose (CMC) (Sigma-Aldrich, St. Louis, Mo., USA) containing EMEM. Viral foci were visualized using peroxidase-based foci staining assay four days post infection. The number of DENV-2 foci formed was counted under a stereomicroscope and the virus titer was expressed as Foci-Forming-Unit (FFU). The percentage of viral foci reduction (RF %) compared to untreated controls was calculated as follows: […]
(§4) where, C is the mean of the number of foci for negative control well (without compound) and T is the mean of the number of foci in treated wells.
as §1
(§5) Quantitative RT-PCR was performed to determine the effect of the compound on DENV replication by quantifying DENV-2 genomic RNA copy number. Briefly, intracellular and extracellular DENV-2 RNAs were harvested from the DENV-infected Vero cells. Viral RNA was extracted using two types of RNA extraction kits (QlAamp Viral RNA mini kit and RNeasy mini kit) (Qiagen, Hilden, Germany). Quantitative RT-PCR assay was performed by adding 1 µl of extracted DENV RNA to the SensiMix SYBR green reagent (Quantace, Watford, United Kingdom) which contained 7.4 μl ddH2O, 10 μl 2× SensiMix One-Step, 0.4 μl 50× SYBR Green solution, 10 units of RNAse Inhibitor, 50 pmol of forward (DNF) and also reverse (D2R) primers. All samples were assayed in triplicate. […] For absolute quantitation of the viral RNA, a standard curve was established with a serially diluted RNA extracted from DENV-2 stock with a known titer.

In data set [4] the test system is DENV-2 (NGC strain). Kind of data set: Direct virucidal effect against DENV-2 (FFURA, qRT-PCR). The class given is cell-based, Dengue virus type-2. The procedure:
Direct virucidal effect of quercetin was investigated by incubating DENV-2 suspension containing 200 FFU with an equal volume of the different concentrations of quercetin for two hours at 37° C. Then, Vero cells were infected with the treated viral suspension in triplicates. At one hour adsorption at 37° C., cells were washed twice with PBS in order to remove unadsorbed viruses. The microplate was incubated at 37° C. for four days. Viral foci formed were counted and DENV RNA copy number to indicate direct virucidal effects was quantified using quantitative RT-PCR.
In general, antiviral activity of quercein was evaluated by measuring the reduction in number of viral foci. […] The number of DENV-2 foci formed was counted under a stereomicroscope and the virus titer was expressed as Foci-Forming-Unit (FFU). The percentage of viral foci reduction (RF %) compared to untreated controls was calculated as follows: […]
as §1, §2

The test system of data set [5] is DENV-2 (NGC strain). The experiment in a line: Post-adsorption antiviral activity against intracellular replication of DENV-2 (FFURA, qRT-PCR). The class given is cell-based, Dengue virus type-2. The procedure:
Post-adsorption antiviral activity of quercetin against intracellular replication of DENV-2 was performed by inoculating 200 FFU of virus to each well containing monolayer of Vero cells. After adsorption of virus to the cells for one hour at 37° C., the cells were washed with PBS to remove the unadsorped viruses. Then, different concentrations of quercetin were added to the cells followed by four days incubation at 37° C. Viral foci formed were counted and DENV RNA copy number to indicate inhibition of virus replication was quantified using quantitative RT-PCR.
as §3, §4, §1
as §5, with “triplicate. Amplification was performed using the DNA Engine Opticon system (MJ Research/Bio-Rad, Hercules, Calif.) with the following cycling conditions: reverse transcription at 50° C. for 30 min, initial denaturation at 95° C. for 10 min, followed by 45 cycles of 95° C. for 15 sec, 59° C. for 30 sec and 72° C. for 30 sec.” for “triplicate.”

Values after ≈ are worked out from the molar mass of the structure shown.

Consider `O=c1c(O)c(-c2ccc(O)c(O)c2)oc2cc(O)cc(O)c12` [quercetin, 2-(3,4-dihydroxyphenyl)-3,5,7-trihydroxy-4H-1-benzopyran-4-one], for which the CC50 in data set [1] stood at 252.6 ± 0.17 µg/mL (≈ 836 µM). In addition, in data set [2], the “anti-adsorption activity against DENV-2” value was about 5%. In addition, the “decrease of the number of DENV-2 foci” value in data set [3] (50 μg/mL quercetin, continuous treatment of Vero cells, vs non-treated cells) was 70%±1.5. Also, the IC50 in data set [3] (Dengue virus, DENV2, continuous treatment from 5 hours before infection up to 4 days post-infection, Vero cells, FFURA, read-out: IC50, anti-dengue activity) worked out at 28.9 µg/mL (≈ 95.6 µM); in data set [5] (Dengue virus, DENV2, added post viral adsorption, Vero cells, FFURA), 35.7 µg/mL (≈ 118 µM). Moreover, the values for the SI value in data set [3] (continuous treatment) and in data set [5] (post-adsorption assay) were 8.74 and 7.07, respectively. Also, the “decrease of DENV-2 RNA production” value in data set [3] (continuous treatment, qRT-PCR) was “more than 75.7%±1.57”. In data set [4] (different concentrations of compound, qRT-PCR), the “decrease in copy number of DENV-2 RNA following direct treatment” value was “no significant decrease”. Moreover, the “direct virucidal activity against DENV-2” value in data set [4] (virus incubated with compound two hours at 37° C., foci) was “no significant direct virucidal activity”. In addition, the “decrease of DENV-2 specific RNA production” value in data set [5] (50 μg/mL quercetin, post-adsorption, qRT-PCR, vs non-treated infected cells) is “more than 67%±1”. The “appearance of viral foci in treated cells” value in data set [5] (50 μg/ml quercetin, foci staining, vs untreated dengue infected cells) was “small, less intensely stained and more diffused”.
